Assay results: patent US20250326792A1, “A FORMULATION FOR TREATMENT OF PIGMENTARY DISORDERS” (priority 2022, published 2025)
PHPP = 3-Phenylpyrazolo[3,4-d]pyrimidine (N-terminal cap)

Key:
NHEM cells = assay: Melanin content assay in NHEM cells; assay type: cell-based, Human; conditions: for % increase in melanin content compared to control / Fold change in melanin content: NHEM CELLS
Procedure: (§1) Culture and maintenance of cell lines: B16F10 cells were cultured in RPMI containing 10% fetal bovine serum, 100 units per millilitre (U/mL) penicillin, 0.1 mg/mL streptomycin, and 0.25 microgram per millilitre (μg/mL) amphotericin B at 37 degrees Celsius in a humidified 95% air/5% CO2 incubator. Drug treatment was done 24 hours after seeding. Cells were harvested 48 hours later and melanin content and tyrosinase activity determined in triplicate. NHEM cells were cultured in DMEM containing 10% fetal bovine serum, 100 units per milliliter (U/mL) penicillin, 0.1 mg/mL streptomycin, and 0.25 microgram per millilitre (μg/mL) amphotericin B at 37 degrees Celsius in a humidified 95% air/5% CO2 incubator. Drug treatment was done 24 hours after seeding. Cells were harvested 48 hours later and melanin content and tyrosinase activity determined in triplicate.
(§2) IS103 was dissolved in water for injection or DMSO to prepare stock solution of about 50 mg/ml. The stock solution was used for preparation of subsequent dilutions in solvent to achieve working dilutions for treatment ranging 0.1 μg/ml to 1000 μg/ml.
(§3) Cells were seeded in a 6-well plate (2×10^4 cells/well) and incubated overnight to allow the cells to adhere. After treating with various test samples for 4 or 5 days, cells were washed with phosphate-buffered saline (PBS), trypsinized, counted, and then lysed in 1 N NaOH at 100° C. for about 1 hour. The melanin content in each sample was calculated by comparison of absorbance at 400 nm of unknown samples with a standard curve obtained using synthetic melanin. IS103 enhances melanin synthesis in a dose dependent manner without significant toxicity. B16F10 and NHEM cells were treated with different concentrations of IS103 ranging from 0.1 to 1000 μg/ml and analysed melanin contents in cells. It was observed that IS103 was able to enhance pigmentation of B16F10 and NHEM cells in a dose-dependent manner (Table 18 and FIGS. 4 and 5). […] To assess the toxicity of the IS103 peptide, cell viability was analyzed by MTT assay.

B16F10 cells = assay: Melanin content assay in B16F10 cells; assay type: cell-based; conditions: for % increase in melanin content compared to control / Fold change in melanin content: B16F10 CELLS
Procedure: as §1, §2
as §3, with “IS103 enhances melanin synthesis in a dose dependent manner without significant toxicity.” left out, “cells.” for “cells. It was observed that IS103 was able to enhance pigmentation of B16F10 and NHEM cells in a dose-dependent manner (Table 18 and FIGS. 4 and 5).”

PHPP-Tyr-Arg-Ser-Arg-Lys-Tyr-Ser-Ser-Trp-Tyr-NH2 ({PHPP}-YRSRKYSSWY-NH2) [IS103]
% increase in melanin content compared to control (NHEM cells; 0.1 μg/mL): 0%
Fold change in melanin content (NHEM cells; 0.1 μg/mL): 1.0 ± 0.20
% increase in melanin content compared to control (NHEM cells; 1 μg/mL): 0%
Fold change in melanin content (NHEM cells; 1 μg/mL): 1.0 ± 0.20
% increase in melanin content compared to control (NHEM cells; 10 μg/mL): 0%
Fold change in melanin content (NHEM cells; 10 μg/mL): 1.0 ± 0.20
% increase in melanin content compared to control (NHEM cells; 50 μg/mL): 40%
Fold change in melanin content (NHEM cells; 50 μg/mL): 1.4 ± 0.20
% increase in melanin content compared to control (NHEM cells; 100 μg/mL): 130%
Fold change in melanin content (NHEM cells; 100 μg/mL): 2.3 ± 0.20
% increase in melanin content compared to control (NHEM cells; 250 μg/mL): 160%
Fold change in melanin content (NHEM cells; 250 μg/mL): 2.6 ± 0.20
% increase in melanin content compared to control (NHEM cells; 500 μg/mL): 180%
Fold change in melanin content (NHEM cells; 500 μg/mL): 2.8 ± 0.20
% increase in melanin content compared to control (NHEM cells; 1000 μg/mL): 165%
Fold change in melanin content (NHEM cells; 1000 μg/mL): 2.7 ± 0.20
effect on melanin synthesis (FIG. 5) (NHEM cells; NHEM cells, different concentrations, about 48 hours): enhanced melanin synthesis in a dose-dependent manner
% increase in melanin content compared to control (B16F10 cells; 0.1 μg/mL): 0%
Fold change in melanin content (B16F10 cells; 0.1 μg/mL): 1.0 ± 0.20
% increase in melanin content compared to control (B16F10 cells; 1 μg/mL): 0%
Fold change in melanin content (B16F10 cells; 1 μg/mL): 1.0 ± 0.30
% increase in melanin content compared to control (B16F10 cells; 10 μg/mL): 20%
Fold change in melanin content (B16F10 cells; 10 μg/mL): 1.2 ± 0.10
% increase in melanin content compared to control (B16F10 cells; 50 μg/mL): 60%
Fold change in melanin content (B16F10 cells; 50 μg/mL): 1.6 ± 0.20
% increase in melanin content compared to control (B16F10 cells; 100 μg/mL): 125%
Fold change in melanin content (B16F10 cells; 100 μg/mL): 2.3 ± 0.30
% increase in melanin content compared to control (B16F10 cells; 250 μg/mL): 180%
Fold change in melanin content (B16F10 cells; 250 μg/mL): 2.8 ± 0.20
% increase in melanin content compared to control (B16F10 cells; 500 μg/mL): 190%
Fold change in melanin content (B16F10 cells; 500 μg/mL): 2.9 ± 0.10
% increase in melanin content compared to control (B16F10 cells; 1000 μg/mL): 176%
Fold change in melanin content (B16F10 cells; 1000 μg/mL): 2.8 ± 0.30
concentration sufficient to significantly enhance melanin synthesis (B16F10 cells; B16F10 and NHEM cells, not distinguished): 10 µg/mL
effect on melanin synthesis (FIG. 4) (B16F10 cells; B16F10 cells, different concentrations, about 48 hours): enhanced melanin synthesis in a dose-dependent manner
